Results: patent publication US20060122279A1, “Hydrophobic polyamine amides as potent lipopolysaccharide sequestrants” (priority 2004, published 2006)
“And” between values parts separate entries of the source, which are not always exact repeats. Identical values can stand only once.

Test system: not given
Assay: not given
Assay type: binding, E. coli 0111:B4
Conditions: E. coli 0111:B4 LPS; Tables 1-3; read-out: ED50 (half-maximal effective displacement of BC probe from LPS)
Protocol: Polymyxin B (PMB), a peptide antibiotic known to bind and neutralize LPS^47 serves as the positive control and reference compound for every plate, enabling the quantitative assessment of repeatability and reproducibility (CV and Z′ factors) for the assay. Robotic liquid handling is performed on a Precision 2000 automated microplate pipetting system, programmed using the Precision Power software, Bio-Tek Instruments Inc., VT, USA. Stock solutions of LPS (5 mg/ml; E. coli 0111:B4; procured from Sigma) and BC (500 μM) are prepared in Tris buffer (pH 7.4, 50 mM). 1 ml each of the LPS and BC stocks are mixed and diluted in Tris buffer to a final volume of 100 ml, yielding final concentrations of 50 μg/ml of LPS and 5 μM BC. 40 μl of this BC:LPS mixture is added to each well of the plate using the Precision 2000. Fluorescence measurements are made at 25° C. on a Fluoromax-3 with Micromax Microwell 384-well plate reader, using DataMax software, Jobin Yvon Inc., N.J. The BC excitation wavelength is 580 nm, emission spectra are taken at 620 nm with both emission and excitation monochromator bandpasses set at 5 nm.

Structure (SMILES) | EC50
CCCCCC/C=C/CCCCCCCCCC(=O)NCCCCC(N)C(=O)NCCCNCCCCNCCCN (centres unmarked) [Compound 10] | 4.2 µM
CCCCCCCCCCCCCCCCC(=O)NCCCCC(N)C(=O)NCCCNCCCCNCCCN [Compound 11, L-Lys-ε-(heptadecanoyl)-N^1-spermine] | 6.71 µM
CCCCCCCCCCCCCCCCS(=O)(=O)NCCCCC(N)C(=O)NCCCNCCCCNCCCN [Compound 12, L-Lys-ε-(hexadecanesulfonamide)-N^1-spermine] | 5.93 µM
CCCCCCCCCCCCCCCC(=O)NCCCCC(N)C(=O)NCCCNCCCCNCCCN [Compound 13, D-Lys-ε-(palmitoyl)-N^1-spermine] | 10 µM and 9.94 µM
CCCC/C=C/CCCCCCCCCC(=O)NCCCCC(N)C(=O)NCCCNCCCCNCCCN (centres unmarked) [Compound 15] | 3.8 µM and 3.82 µM
CCCCCCCC(=O)NCCCCC(N)C(=O)NCCCNCCCCNCCCN [Compound 17, L-Lys-ε-(octanoyl)-N^1-spermine] | 13 µM
CC(C)C(=O)NCCCCC(N)C(=O)NCCCNCCCCNCCCN [Compound 18, D-Lys-ε-(isopropoyl)-N^1-spermine] | 299 µM
CC(C)(C)C(=O)NCCCCC(N)C(=O)NCCCNCCCCNCCCN (centres unmarked) [Compound 19] | 327 µM
NCCCNCCCCNCCCNC(=O)C(N)CCCCNC(=O)CC1CC2CCC1C2 [Compound 20, D-Lys-ε-(2-norbornaneacetoyl)-N^1-spermine] | 16.2 µM
NCCCNCCCCNCCCNC(=O)C(N)CCCCNC(=O)c1ccc(-c2ccccc2)cc1 [Compound 21, D-Lys-ε-(4-biphenycarboxamide)-N^1-spermine] | 7.9 µM and 7.86 µM
NCCCNCCCCNCCCNC(=O)C(N)CCCCNC(=O)CCCc1ccc2ccc3cccc4ccc1c2c34 [Compound 22, L-Lys-ε-(4-(1-pyrene)-butanoyl)-N^1-spermine] | 7.1 µM and 7.09 µM
COCCOCCOCC(=O)NCCCCC(N)C(=O)NCCCNCCCCNCCCN [Compound 24, L-Lys-ε-(2-[2-(2-methoxyethoxy)ethoxy]acetoyl)-N^1-spermine] | 572 µM
COCCOCC(=O)NCCCCC(N)C(=O)NCCCNCCCCNCCCN [Compound 25, L-Lys-ε-(2-(2-methoxyethoxy)acetoyl)-N^1-spermine] | 495 µM
CCCC/C=C\CCCCCCCCCCNCCCCC(N)C(=O)NCCCNCCCCNCCCN (centres unmarked) [Compound 27] | 2.59 µM
CCCCCCCNCCCCC(N)C(=O)NCCCNCCCCNCCCN (centres unmarked) [Compound 28] | 3.86 µM
CCCCCCCNCCCCC(N)C(=O)NCCCNCCCCNCCCN (centres unmarked) [Compound 29] | 5.99 µM
CCCCCCCN(CCCCCCC)CCCC[C@H](N)C(=O)NCCCNCCCCNCCCN [Compound 30, L-Lys-ε-(bis-(n-heptyl))-N^1-spermine] | 2.14 µM
CCCCCCNCCCCC(N)C(=O)NCCCNCCCCNCCCN (centres unmarked) [Compound 31] | 7.13 µM
CC(C)=CCC[C@H](C)CCNCCCCC(N)C(=O)NCCCNCCCCNCCCN (some centres unmarked) [Compound 32] | 9.6 µM and 9.55 µM
CC(C)(C)CCNCCCCC(N)C(=O)NCCCNCCCCNCCCN (centres unmarked) [Compound 33] | 12.1 µM
CC(C)(C)CCNCCCCC(N)C(=O)NCCCNCCCCNCCCN [Compound 34, D-Lys-ε-(3,3-dimethyl-1-butyl)-N^1-spermine] | 10.9 µM
CC(C)CNCCCCC(N)C(=O)NCCCNCCCCNCCCN [Compound 35, D-Lys-ε-(3-methylpropyl)-N^1-spermine] | 101 µM
NCCCNCCCCNCCCNC(=O)C(N)CCCCNCC1CCCCC1 (centres unmarked) [Compound 37] | 9.8 µM and 9.84 µM
NCCCNCCCCNCCCNC(=O)C(N)CCCCN(CC1CCCCC1)CC1CCCCC1 [Compound 38, L-Lys-ε-(bis-(cyclohexyl))-N^1-spermine] | 4 µM and 4.04 µM
NCCCNCCCCNCCCNC(=O)C(N)CCCCNCc1ccc(-c2ccccc2)cc1 [Compound 39, D-Lys-ε-(4-phenylbenzyl)-N^1-spermine] | 3.7 µM and 3.71 µM

Same assay, conditions: b47, cis-unsaturated vs saturated alkyl

Structure (SMILES) | IC50 [µM]
CCCC/C=C\CCCCCCCCCCNCCCCC(N)C(=O)NCCCNCCCCNCCCN (centres unmarked) [Compound 27] | 2.6

Test system: murine macrophage J774.A1 cells
Assay: Nitric oxide (NO) inhibition in LPS-stimulated J774.A1 cells (Griess)
Assay type: cell-based
Conditions: J774.A1 cells, 100 ng/ml LPS, 16 h; Tables 1-3; read-out: NO IC50
Protocol: Murine monocytes (J774.A1 cells) produce measurable quantities of NO on exposure to LPS and provide a model for the rapid assessment of compounds to neutralize LPS activity. […] In all experiments, Polymyxin B (PMB), a decapeptide antibiotic, known to bind and neutralize LPS,^29;47;48 is used as a reference compound.
Nitric oxide production is measured as total nitrite in murine macrophage J774.A1 cells using the Griess reagent system.^53;54 Murine macrophage J774.A1 cells are grown in RPMI-1640 cell-culture medium containing L-glutamine and sodium bicarbonate and supplemented with 10% fetal bovine serum, 1% L-glutamine-penicillin-streptomycin solution, and 200 μg/ml L-arginine at 37° C. in a 5% CO2 atmosphere. Cells are plated at ˜2×10^6/ml in a volume of 40 μl/well, in 384 well, flat-bottomed, cell culture treated microtiter plates until confluency and subsequently stimulated with 100 ng/ml lipopolysaccharide (LPS). Concurrent to LPS stimulation, serially diluted concentrations of test compounds are added to the cell medium and left to incubate overnight for 16 h. Polymyxin B is used as reference compound in each plate. Positive—(LPS stimulation only) and negative-controls (J774.A1 medium only) are included in each experiment. Nitrite concentrations are measured adding 30 μl of supernatant to equal volumes of Griess reagents (50 μl/well; 0.1% NED solution in ddH2O and 1% sulfanilamide, 5% phosphoric acid solution in ddH2O) and incubating for 15 minutes at room temperature in the dark. Absorbance at 535 nm is measured using a Molecular Devices Spectramax M2 multifunction plate reader (Sunnyvale, Calif.). Nitrite concentrations are interpolated from standard curves obtained from serially diluted sodium nitrite standards.

Structure (SMILES) | IC50 [µM]
CCCCCCCCCCCCCCCC(=O)NCCCCC(N)C(=O)NCCCNCCCCNCCCN [Compound 13, D-Lys-ε-(palmitoyl)-N^1-spermine] | 2.29
CCCC/C=C/CCCCCCCCCC(=O)NCCCCC(N)C(=O)NCCCNCCCCNCCCN (centres unmarked) [Compound 15] | 8.85
CCCCCCCC(=O)NCCCCC(N)C(=O)NCCCNCCCCNCCCN [Compound 17, L-Lys-ε-(octanoyl)-N^1-spermine] | 162
NCCCNCCCCNCCCNC(=O)C(N)CCCCNC(=O)c1ccc(-c2ccccc2)cc1 [Compound 21, D-Lys-ε-(4-biphenycarboxamide)-N^1-spermine] | 124
NCCCNCCCCNCCCNC(=O)C(N)CCCCNC(=O)CCCc1ccc2ccc3cccc4ccc1c2c34 [Compound 22, L-Lys-ε-(4-(1-pyrene)-butanoyl)-N^1-spermine] | 108
CCCCCCCNCCCCC(N)C(=O)NCCCNCCCCNCCCN (centres unmarked) [Compound 28] | 82.3
CCCCCCCNCCCCC(N)C(=O)NCCCNCCCCNCCCN (centres unmarked) [Compound 29] | 46.4
CCCCCCCN(CCCCCCC)CCCC[C@H](N)C(=O)NCCCNCCCCNCCCN [Compound 30, L-Lys-ε-(bis-(n-heptyl))-N^1-spermine] | 38.8
CC(C)(C)CCNCCCCC(N)C(=O)NCCCNCCCCNCCCN [Compound 34, D-Lys-ε-(3,3-dimethyl-1-butyl)-N^1-spermine] | 838
NCCCNCCCCNCCCNC(=O)C(N)CCCCN(CC1CCCCC1)CC1CCCCC1 [Compound 38, L-Lys-ε-(bis-(cyclohexyl))-N^1-spermine] | > 1000
NCCCNCCCCNCCCNC(=O)C(N)CCCCNCc1ccc(-c2ccccc2)cc1 [Compound 39, D-Lys-ε-(4-phenylbenzyl)-N^1-spermine] | 105

Same assay, conditions: Mus musculus, J774.A1, 16 h, J774.A1 cells, 100 ng/ml LPS, 16 h; Tables 1-3; read-out: NO IC50

Structure (SMILES) | IC50 [µM]
CCCCCCCCCCCCCCCCC(=O)NCCCCC(N)C(=O)NCCCNCCCCNCCCN [Compound 11, L-Lys-ε-(heptadecanoyl)-N^1-spermine] | 4.49
CCCCCCCC(=O)NCCCCC(N)C(=O)NCCCNCCCCNCCCN [Compound 17, L-Lys-ε-(octanoyl)-N^1-spermine] | 160
CC(C)C(=O)NCCCCC(N)C(=O)NCCCNCCCCNCCCN [Compound 18, D-Lys-ε-(isopropoyl)-N^1-spermine] | > 1000
CC(C)(C)C(=O)NCCCCC(N)C(=O)NCCCNCCCCNCCCN (centres unmarked) [Compound 19] | > 1000
COCCOCCOCC(=O)NCCCCC(N)C(=O)NCCCNCCCCNCCCN [Compound 24, L-Lys-ε-(2-[2-(2-methoxyethoxy)ethoxy]acetoyl)-N^1-spermine] | > 1000
COCCOCC(=O)NCCCCC(N)C(=O)NCCCNCCCCNCCCN [Compound 25, L-Lys-ε-(2-(2-methoxyethoxy)acetoyl)-N^1-spermine] | > 1000
CCCC/C=C\CCCCCCCCCCNCCCCC(N)C(=O)NCCCNCCCCNCCCN (centres unmarked) [Compound 27] | 0.66
CCCCCCCNCCCCC(N)C(=O)NCCCNCCCCNCCCN (centres unmarked) [Compound 29] | 46
CCCCCCNCCCCC(N)C(=O)NCCCNCCCCNCCCN (centres unmarked) [Compound 31] | > 1000
CC(C)=CCC[C@H](C)CCNCCCCC(N)C(=O)NCCCNCCCCNCCCN (some centres unmarked) [Compound 32] | > 1000
CC(C)(C)CCNCCCCC(N)C(=O)NCCCNCCCCNCCCN (centres unmarked) [Compound 33] | > 1000
CC(C)CNCCCCC(N)C(=O)NCCCNCCCCNCCCN [Compound 35, D-Lys-ε-(3-methylpropyl)-N^1-spermine] | 72.9
NCCCNCCCCNCCCNC(=O)C(N)CCCCNCC1CCCCC1 (centres unmarked) [Compound 37] | > 1000

Same assay, conditions: Mus musculus, J774.A1, 16 h, read-out: NO IC50, J774.A1 cells, 100 ng/ml LPS, 16 h; Tables 1-3

Structure (SMILES) | IC50 [µM]
CCCC/C=C/CCCCCCCCCC(=O)NCCCCC(N)C(=O)NCCCNCCCCNCCCN (centres unmarked) [Compound 15] | 8.8
NCCCNCCCCNCCCNC(=O)C(N)CCCCNC(=O)c1ccc(-c2ccccc2)cc1 [Compound 21, D-Lys-ε-(4-biphenycarboxamide)-N^1-spermine] | > 100
NCCCNCCCCNCCCNC(=O)C(N)CCCCNC(=O)CCCc1ccc2ccc3cccc4ccc1c2c34 [Compound 22, L-Lys-ε-(4-(1-pyrene)-butanoyl)-N^1-spermine] | > 100
NCCCNCCCCNCCCNC(=O)C(N)CCCCNCc1ccc(-c2ccccc2)cc1 [Compound 39, D-Lys-ε-(4-phenylbenzyl)-N^1-spermine] | > 100

Same assay, conditions: Mus musculus, J774.A1, read-out: IC50 (LPS neutralization, NO)

Structure (SMILES) | IC50 [µM]
COCCOCCOCC(=O)NCCCCC(N)C(=O)NCCCNCCCCNCCCN [Compound 24, L-Lys-ε-(2-[2-(2-methoxyethoxy)ethoxy]acetoyl)-N^1-spermine] | > 1000
COCCOCC(=O)NCCCCC(N)C(=O)NCCCNCCCCNCCCN [Compound 25, L-Lys-ε-(2-(2-methoxyethoxy)acetoyl)-N^1-spermine] | > 1000

Same assay, conditions: Table 7 focused library, NO inhibition; read-out: NO

Structure (SMILES) | IC50 [µM]
CCCCCCCCCCCCCCCC(=O)NCCCCC(N)C(=O)NCCCNCCCCNCCCN [Compound 13, D-Lys-ε-(palmitoyl)-N^1-spermine] | 13
CCCCCCCCCCCCCC(=O)NCCCCC(N)C(=O)NCCCNCCCCNCCCN (centres unmarked) [Compound 41] | 26
CCCCCCCCCCCCCCCCCCCC(=O)NCCCCC(N)C(=O)NCCCNCCCCNCCCN (centres unmarked) [Compound 42] | 5.77
CCCCCCCCCCCCCCNCCCCC(N)C(=O)NCCCNCCCCNCCCN (centres unmarked) [Compound 43] | 6.17
CCCCCCCCCCCCCCCCCCCCNCCCCC(N)C(=O)NCCCNCCCCNCCCN (centres unmarked) [Compound 45] | 3.67
CCCCCCCCCCCCCCNCCCCC(N)C(=O)NCCCNCCCCNCCCN (centres unmarked) [Compound 46] | 5.34
CCCCCCCCCCCCCCCCNCCCCC(N)C(=O)NCCCNCCCCNCCCN (centres unmarked) [Compound 47] | 6.89
CCCCCCCCCCCCCCCCCCCCNCCCCC(N)C(=O)NCCCNCCCCNCCCN (centres unmarked) [Compound 49] | 2.2
CCCCCCCCCCCCCC(=O)NCCCCCC(=O)NCCCNCCCCNCCCN [Compound 50] | 48.4
CCCCCCCCCCCCCCCCCC(=O)NCCCCCC(=O)NCCCNCCCCNCCCN [Compound 52] | 29.6
CCCCCCCCCCCCCCCCCCCC(=O)NCCCCCC(=O)NCCCNCCCCNCCCN [Compound 53] | 26.6
CCCCCCCCCCCCCCNCCCCCC(=O)NCCCNCCCCNCCCN [Compound 54] | 9.48
CCCCCCCCCCCCCCCCNCCCCCC(=O)NCCCNCCCCNCCCN [Compound 55] | 6.12
CCCCCCCCCCCCCCCCCCNCCCCCC(=O)NCCCNCCCCNCCCN [Compound 56] | 5.34
CCCCCCCCCCCCCCCCCCCCNCCCCCC(=O)NCCCNCCCCNCCCN [Compound 57] | 5.02
